Experiments:
rhinoviruses = settings: cited from earlier work
RSV = experiment: Antiviral assay (PRA): inhibition of RSV syncytial plaque formation on Hep2 cell monolayers; format: cell-based; settings: human respiratory syncytial virus, HEp-2; Table 2; RSV-infected Hep2 cells, 48 hours, syncytia counted; read-out: PRA (IC50)
Experimental: The lower the observed level of fusion, the greater the antiviral activity of the compound was determined to be. Uninfected confluent monolayers (seeded at 2.2×10^4 cells/well) of Hep2 cells were grown in microtiter wells (96-well plates) in EMEM (Eagle Minimum Essential Medium w/o L-glutamine [Bio Whittaker Cat. […] Bio Whittaker Cat. No. 14-[…]), antibiotics (penicillin/streptomycin; Bio Whittaker Cat. […] The plates were incubated for 24 hours and used for antiviral assays and cytotoxicity assays. To prepare Hep2 cells for addition to uninfected cells, cultures of […] infected Hep2 cells were washed with DPBS (Dulbecco's Phosphate Buffered Saline w/o calcium or magnesium; Bio Whittaker Cat. […] Gibco Life Technologies Cat. No. 15040-017). The cells were spun for 10 minutes and resuspended in 3% FBS. Cell counts were performed using a hemacytometer. Persistent cells were added to the uninfected Hep2 cells. The antiviral assay was conducted by first removing all medium from the wells containing uninfected Hep2 cells, adding 100 μl complete EMEM, then adding hetero-substituted benzimidazole compounds (eight 3-fold dilutions with 20 μM concentration as the highest final concentration) in 50 μl complete EMEM. Approximately 50 […] plaque forming units (PFU) of RSV in 50 μl was added per well and the plates were incubated in a CO2 incubator at 37° C. for 48 hours. Each plate contained uninfected control wells and infected untreated control wells for calculation of % inhibition (EC50) for each concentration. After incubation, cells in control wells were checked for fusion centers, medium was removed from the wells followed by addition to each well of either Crystal Violet stain or XTT. With respect to Crystal Violet, approximately 50μl 0.25% Crystal Violet stain in methanol was added to each well. The wells were rinsed immediately, to remove excess stain, and were allowed to dry. The number of syncytia per well were then counted, using a dissecting microscope. For antiviral assays at 48 hours post infection, cells in control wells were checked for syncytial plaques. Medium was removed from the wells followed by addition of approximately 50 Al Crystal Violet stain (0.25% Crystal Violet, 0.25% Giemsa dissolved in 10% formaldehyde, 70% methanol, and 20% H2O). The wells were incubated at room temperature for 5 minutes, rinsed with H2O to remove excess stain, and allowed to dry. The number of syncytia per well were counted using a dissecting microscope. The 50% inhibitory concentration (EC50) for each compound was calculated from the dose response curve. The compounds listed in Tables 1-2 have been screened for inhibitory activity against RSV.

[1] = XTT cytotoxicity assay on uninfected Hep2 cells; format: cell-based; settings: human
Experimental: Uninfected confluent monolayers (seeded at 2.2×10^4 cells/well) of Hep2 cells were grown in microtiter wells (96-well plates) in EMEM (Eagle Minimum Essential Medium w/o L-glutamine [Bio Whittaker Cat. No. 12-125F] with 3% fetal bovine serum (FBS; which had been heat inactivated for 30 minutes at 56° C.; Bio Whittaker Cat. No. 14-501F), antibiotics (penicillin/streptomycin; Bio Whittaker Cat. No. 17-602E) added at 1%, and glutamine added at 1% (complete EMEM). The plates were incubated for 24 hours and used for antiviral assays and cytotoxicity assays.
Cytotoxicity assays were conducted by first removing all medium from the well containing uninfected Hep2 cells, adding 100 μl complete EMEM, and then adding hetero-substituted benzimidazole compounds (eight 3-fold dilutions with 100 μM concentration as the highest final concentration). Complete EMEM (50 μl) was added to each well instead of virus and the plates were incubated in a CO2 incubator at 37° C. for 48 hours.
At 48 hours, the cytotoxicity assays were developed by adding to each well 50 μl of XTT (1 mg/ml in PBS) containing 0.01-0.02 mM of the electron coupling agent phenazine methosulfate (PMS). The plates were incubated for 2-4 hours at 37° C. and then read in a 96-well plate reader at 450 nm. Plotting the % average OD of treated wells compared to the cell control vs. compound concentration generated dose response curves. CC50 (50% inhibitory cytotoxic concentration) values for each compound were then calculated from these curves. […]

IC50 (RSV) [µM]	Structure (SMILES)	inhibition of the cytopathic effect (rhinoviruses) [%]	CC50 at 48 h [1] [µM]
–	COc1ccc2nc[nH]c2c1 [5-methoxybenzimidazole]	100	–
0.2	Cc1nn(C)c(Cl)c1S(=O)(=O)N1CCN(Cc2nc3cccnc3n2Cc2nc3ccccc3[nH]2)CC1 [compound 29, 3-(1H-Benzoimidazol-2-ylmethyl)-2-[4-(5-chloro-1,3-dimethyl-1H-pyrazole-4-sulfonyl)-piperazin-1-ylmethyl]-3H-imidazo[4,5-b]pyridine]	–	≥ 100
0.01	O=S(=O)(c1ccc(F)cc1F)N1CCN(Cc2nc3cccnc3n2Cc2nc3ccccc3[nH]2)CC1 [compound 30, 3-(1H-Benzoimidazol-2-ylmethyl)-2-[4-(2,4-difluoro-benzenesulfonyl)-piperazin-1-ylmethyl]-3H-imidazo[4,5-b]pyridine]	–	≥ 100
0.01	O=S(=O)(c1ccsc1)N1CCN(Cc2nc3cccnc3n2Cc2nc3ccccc3[nH]2)CC1 [compound 31, 3-(1H-Benzoimidazol-2-ylmethyl)-2-[4-(thiophene-3-sulfonyl)-piperazin-1-ylmethyl]-3H-imidazo[4,5-b]pyridine]	–	≥ 100
